From patent US20150087616A1, “PREBIOTIC FORMULATIONS AND METHODS OF USE” (RITTER PHARMACEUTICALS, INC., priority 2011, published 2015)

System: Bifidobacterium species
Experiment: Comparative growth of Bifidobacterium species in scratch MRS with 2% carbohydrate
Assay type: cell-based
Details: five (four) Bifidobacterium species; scratch MRS + 2% carbohydrate
Method: The objective of the study was to determine the ability of various Bifidobacterium species and strains to grow on galactooligosaccharides.
The growth of Lactobacillus and Bifidobacterium strains was evaluated in scratch MRS (Table 16) supplemented with 2% of a carbohydrate solution. The carbohydrates used in the experiments were: Glucose—Fisher; Lactose—Fisher; GOS1—95% GOS purity from Inalco SPA—Provided by Ritter Pharmaceuticals; GOS2—90% GOS purity from GTC—provided by Ritter Pharmaceuticals.
Carbohydrate stock solutions were filter sterilized and then added to either a scratch MRS formulation (Table 16), or a semisynthetic medium (Table 17).
Lactobacillus and Bifidobacterium cultures were propagated in MRS broth overnight, and then transferred once through the test medium. For growth experiments, cultures were inoculated into the MRS scratch medium containing one of the 4 carbohydrates to be examined Growth was monitored either: **automatically, using a FLUOStar OPTIMA microtiter plate reader to monitor the change in absorbance (A600) as a function of the time. The strains were incubated at 37 C aerobically for these experiments; or ** manually, using a standard spectrophotometer to monitor the change in OD600 nm over time, in 5 ml liquid culture tubes. These cultures were incubated anaerobically at 37° C. in a COY anaerobic chamber, flushed with anaerobic gas. […]

OC[C@H]1O[C@@H](O[C@H]2[C@H](O)[C@@H](O)C(O)O[C@@H]2CO)[C@H](O)[C@@H](O)[C@H]1O (stereo partly shown) [lactose, Lactose]
comparative growth on four carbohydrate sources (glucose, lactose, GOS1, GOS2): none of the Bifidobacterium strains used in these experiments grew
